# How the values were obtained:
# Type in all cases: in vivo
# [1] = test system: Sorghum; experiment: Pre-emergence test/Greenhouse, Sorghum; conditions: after three weeks
# How it was run: (§1)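 Percent damage relative to untreated control plants, scored three weeks after treatment, is the read-out (0% meaning no effect). Treatment consisted of watering the soil with an emulsified aqueous preparation roughly 24 h after seeds were sown, at constant water volume per area.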
# [2] = test system: Ambrosia; experiment: Pre-emergence test/Greenhouse, Ambrosia; conditions: after three weeks
# How it was run: as §1
# [3] = test system: Lolium; experiment: Pre-emergence test/Greenhouse, Lolium; conditions: after three weeks
# How it was run: as §1
# [4] = test system: Matricaria; experiment: Pre-emergence test/Greenhouse, Matricaria; conditions: after three weeks
# How it was run: as §1
# [5] = test system: Maize; experiment: Pre-emergence test/Greenhouse, Maize; conditions: in vivo
# How it was run: as §1
# [6] = test system: Soya beans; experiment: Pre-emergence test/Greenhouse, Soya beans; conditions: in vivo
# How it was run: as §1
# [7] = test system: Solanum; experiment: Pre-emergence test/Greenhouse, Solanum; conditions: after three weeks
# How it was run: as §1
# [8] = test system: weeds; experiment: Pre-emergence test (greenhouse), activity against weeds; conditions: in words
# How it was run: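 Compound formulated in acetone with alkylaryl polyglycol ether emulsifier, diluted in water, and watered onto soil about 24 h after sowing, dosed by application rate per unit area. Damage rated after three weeks as % versus untreated control (0% = no action).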
# [9] = test system: Poa; experiment: Pre-emergence test/Greenhouse, Poa; conditions: after three weeks
# How it was run: as §1
SMILES,"degree of damage to the plants (% damage vs untreated control), Sorghum ([1]; 125 g of ai./ha) [%]","degree of damage to the plants (% damage vs untreated control), Ambrosia ([2]; 125 g of ai./ha) [%]","degree of damage to the plants (% damage vs untreated control), Lolium ([3]; 125 g of ai./ha) [%]","degree of damage to the plants (% damage vs untreated control), Matricaria ([4]; 125 g of ai./ha) [%]","degree of damage to the plants (% damage vs untreated control), Maize [5] [%]","degree of damage to the plants (% damage vs untreated control), Soya beans [6] [%]","degree of damage to the plants (% damage vs untreated control), Solanum ([7]; 125 g of ai./ha) [%]",activity against weeds [8],"degree of damage to the plants (% damage vs untreated control), Poa ([9]; 125 g of ai./ha) [%]","degree of damage to the plants (% damage vs untreated control), Sorghum ([1]; 60 g of ai./ha) [%]","degree of damage to the plants (% damage vs untreated control), Ambrosia ([2]; 60 g of ai./ha) [%]","degree of damage to the plants (% damage vs untreated control), Lolium ([3]; 60 g of ai./ha) [%]","degree of damage to the plants (% damage vs untreated control), Matricaria ([4]; 60 g of ai./ha) [%]","degree of damage to the plants (% damage vs untreated control), Solanum ([7]; 60 g of ai./ha) [%]","degree of damage to the plants (% damage vs untreated control), Poa ([9]; 60 g of ai./ha) [%]",also measured
C#CCSc1nn(C(=O)NS(=O)(=O)c2c(C)csc2C(=O)OC)c(=O)n1C [Example 51],80,95,80,95,0,30,95,very strong activity against weeds,80,–,–,–,–,–,–,–
C#CCSc1nn(C(=O)NS(=O)(=O)c2c(C)cccc2C(=O)OC)c(=O)n1C1CC1 [Example 160],–,–,–,–,30,10,–,very strong activity against weeds,–,60,90,90,95,90,90,–
CCOC(=O)c1scc(C)c1S(=O)(=O)NC(=O)n1nc(C(C)C)n(C)c1=O [Example 68],60,95,80,100,5,10,95,very strong activity against weeds,90,–,–,–,–,–,–,–
CCCOC(=O)c1cccc(C)c1S(=O)(=O)NC(=O)n1nc(CCC)n(C)c1=O [Example 47],60,95,90,95,10,10,95,very strong activity against weeds,90,–,–,–,–,–,–,–
CCCOC(=O)c1cccc(C)c1S(=O)(=O)NC(=O)n1nc(OC)n(C)c1=O [Example 20],90,95,95,95,10,0,95,very strong activity against weeds,95,–,–,–,–,–,–,–
CCSc1nn(C(=O)NS(=O)(=O)c2c(C)cccc2C(=O)OC)c(=O)n1OC [Example 157],–,–,–,–,0,20,–,very strong activity against weeds,–,80,95,90,100,90,80,–
CCSc1nn(C(=O)NS(=O)(=O)c2c(C)csc2C(=O)OC)c(=O)n1C [Example 34],–,–,–,–,10,0,–,very strong activity against weeds,–,80,90,60,95,90,70,–
C=CCOc1nn(C(=O)NS(=O)(=O)c2c(C)cccc2C(=O)OC)c(=O)n1C [Example 148],–,–,–,–,40,0,–,very strong activity against weeds,–,90,80,80,80,95,95,–
CCCOC(=O)c1cccc(Cl)c1S(=O)(=O)NC(=O)n1nc(OCC)n(C)c1=O [Example 134],–,–,–,–,0,20,–,very strong activity against weeds,–,–,–,–,–,–,–,"degree of damage to the plants (% damage vs untreated control), Sorghum ([1]; 500 g of ai./ha): 70%; degree of damage to the plants (% damage vs untreated control), Ambrosia ([2]; 500 g of ai./ha): 80%; degree of damage to the plants (% damage vs untreated control), Lolium ([3]; 500 g of ai./ha): 95%; degree of damage to the plants (% damage vs untreated control), Matricaria ([4]; 500 g of ai./ha): 90%; degree of damage to the plants (% damage vs untreated control), Solanum ([7]; 500 g of ai./ha): 95%; degree of damage to the plants (% damage vs untreated control), Poa ([9]; 500 g of ai./ha): 90%"
CCCOC(=O)c1cccc(C)c1S(=O)(=O)NC(=O)n1nc(OC(C)C)n(C)c1=O [Example 23],60,90,–,95,0,0,90,very strong activity against weeds,80,–,–,–,–,–,–,–
COC(=O)c1cccc(C)c1S(=O)(=O)[N-]C(=O)n1nc(SC)n(C)c1=O.[Na+] [Example 145],–,–,–,–,0,0,–,very strong activity against weeds,–,95,95,95,60,95,95,–
COC(=O)c1cccc(C)c1S(=O)(=O)NC(=O)n1nc(OCC(F)(F)F)n(C)c1=O [Example 143],–,–,–,–,20,0,–,very strong activity against weeds,–,90,80,90,–,90,90,–
COC(=O)c1cccc(C)c1S(=O)(=O)NC(=O)n1nc(SCC(F)(F)F)n(C)c1=O [Example 150],80,70,80,80,–,10,80,very strong activity against weeds,90,–,–,–,–,–,–,–
